Where no end group is shown, it is not given here.
System: 129SV/colVII homo mice (epidermolysis bullosa model mice)
Assay: Forelimb finger adhesion in epidermolysis bullosa model mice
Format: in vivo
Settings: from the start of treatment to Week 8

Sequence: MGKGDPKKPRGKMSSYAFFVQTCREEHKKKHPDASVNFSEFSKK [HMGB1 peptide (1-44)]
- body weight compared with the vehicle group: no significant difference between the groups

From patent publication US20200038486A1, “THERAPEUTIC MEDICINE FOR FIBROUS DISEASE” (StemRIM Inc., priority 2017, published 2020)
